Results reported in patent US7148352B2, “Method of inhibiting neurotrophin-receptor binding” (Queen's University at Kingston, priority 1999, dated 2006).
Where “and” joins values, the source holds several entries; their conditions need not be identical. Equal entries are not always repeated.

Tested on: p75^NTR (PC12^nnr5 cells, expressing p75^NTR only)
Experiment: 125I-NGF receptor binding to PC12^nnr5 cells in the presence of competitor
Design: species or system rat
Details: compound 50 μM; 125I-NGF 1 nM; 2 h at 4° C.; average of three values
Protocol: (§1) The radio-iodination and receptor binding of NGF (Sutter et al., 1979) was performed with modifications (Ross et al., 1997) as follows: Evaluation of the ability of NCP compounds to inhibit TrkA and p75^NTR binding was determined by the binding of ^125I-NGF to PC12 cells (rat pheochromocytoma cells expressing TrkA and p75^NTR; obtained from ATCC) and PC12^nnr5 (rat pheochromocytoma cells expressing p75^NTR only; obtained from Dr. L. Greene, Columbia University, NY). The p75^NTR is in a low affinity state and a high affinity state, respectively, in these cell types (Ross et al., 1998). PC12 and PC12^nnr5 cells were grown in RPMI (Sigma) with 10% heat inactivated donor horse serum and 5% fetal calf serum. Cells were harvested by replacing the medium with calcium, magnesium-free balanced salt solution (Gey's solution) and incubating at 37° C. for 15 minutes. Cells were pelleted by centrifugation and suspended in HKR buffer (10 mM Hepes [pH 7.35] containing 125 mM NaCl, 4.8 mM KCl, 1.3 mM CaCl2, 1.2 mM MgSO4, 1.2 mM KH2PO4, 1 g/L glucose and 1 g/L BSA) at a cell concentration of 2×10^6/mL and kept at 4° C. Triplicate tubes were set up for total binding, non-specific binding and binding in the presence of candidate competitor molecule (i.e., a tube for each data point). Each tube contained ^125I-NGF (at 1 nM), 400,000 cells (for a final cell concentration of 10^6/mL) and NGF (50 nM, to define non-specific binding), as required. The tubes were incubated for 2 h at 4° C. and specific binding evaluated by measuring specifically bound DPM (Ross et al., 1997). Data were analysed and the results expressed as receptor binding observed in the presence of competitor (e.g. NCP compounds) as a percentage of receptor binding in the absence of a competitor.

| SMILES | nnr5 % of Max, Avg |
| --- | --- |
| O=C(O)CCN1C(=O)c2cccc([N+](=O)[O-])c2C1=O [Compound 121, 3-nitro-N-(2-carboxyethyl)phthalimide] | = 165 % of Max |
| O=C(O)CN1C(=O)c2ccc(C(=O)O)cc2C1=O [Compound 100, 4-carboxy-N-(1-carboxymethyl)phthalimide] | = 100 % of Max |
| O=C(O)c1cccc(N2C(=O)c3cccc([N+](=O)[O-])c3C2=O)c1 [Compound 126, 3-nitro-N-(m-carboxyphenyl)phthalimide] | = 52 % of Max |
| O=C(O)CCCCCN1C(=O)c2cccc([N+](=O)[O-])c2C1=O [Compound 124, 3-nitro-N-(5-carboxypentyl)phthalimide] | = 153 % of Max |
| O=C(O)c1ccc(N2C(=O)c3cccc4cc([N+](=O)[O-])cc(c34)C2=O)cc1 [Compound 205, 3-nitro-N-(p-carboxyphenyl)-1,8-naphthalimide] | = 9 % of Max |
| O=C(O)CN1C(=O)c2ccc([N+](=O)[O-])cc2C1=O [Compound 140, 4-nitro-N-(1-carboxymethyl)phthalimide] | = 99 % of Max |
| O=C(O)c1ccc2c(c1)C(=O)N(c1ccccc1)C2=O [Compound 109, 4-carboxy-N-phenylphthalimide] | = 73 % of Max |
| O=C(O)CCCCN1C(=O)c2ccc(C(=O)O)cc2C1=O [Compound 103, 4-carboxy-N-(4-carboxybutyl)phthalimide] | = 47 % of Max |
| O=C(O)c1cccc(N2C(=O)c3cccc4cc([N+](=O)[O-])cc(c34)C2=O)c1 [Compound 206, 3-nitro-N-(m-carboxyphenyl)-1,8-naphthalimide] | = 23 % of Max |
| O=C(O)CCCCCN1C(=O)c2ccc([N+](=O)[O-])cc2C1=O [Compound 144, 4-nitro-N-(5-carboxypentyl)phthalimide] | = 73 % of Max |

Same assay, conditions: compound 50 μM; 125I-NGF 1 nM; 2 h at 4° C.; receptor binding as percentage of binding in absence of competitor

| SMILES | nnr5 % of Max (individual determinations) |
| --- | --- |
| O=C(O)CCN1C(=O)c2cccc([N+](=O)[O-])c2C1=O [Compound 121, 3-nitro-N-(2-carboxyethyl)phthalimide] | 204 % of Max and 188 % of Max and 103 % of Max |
| O=C(O)CN1C(=O)c2ccc(C(=O)O)cc2C1=O [Compound 100, 4-carboxy-N-(1-carboxymethyl)phthalimide] | 108 % of Max and 111 % of Max and 80 % of Max |
| O=C(O)c1cccc(N2C(=O)c3cccc([N+](=O)[O-])c3C2=O)c1 [Compound 126, 3-nitro-N-(m-carboxyphenyl)phthalimide] | 34 % of Max and 54 % of Max and 69 % of Max |
| O=C(O)CCCCCN1C(=O)c2cccc([N+](=O)[O-])c2C1=O [Compound 124, 3-nitro-N-(5-carboxypentyl)phthalimide] | 166 % of Max and 182 % of Max and 110 % of Max |
| O=C(O)c1ccc(N2C(=O)c3cccc4cc([N+](=O)[O-])cc(c34)C2=O)cc1 [Compound 205, 3-nitro-N-(p-carboxyphenyl)-1,8-naphthalimide] | 0 % of Max and 11 % of Max and 15 % of Max |
| O=C(O)CN1C(=O)c2ccc([N+](=O)[O-])cc2C1=O [Compound 140, 4-nitro-N-(1-carboxymethyl)phthalimide] | 89 % of Max and 108 % of Max and 100 % of Max |
| O=C(O)c1ccc2c(c1)C(=O)N(c1ccccc1)C2=O [Compound 109, 4-carboxy-N-phenylphthalimide] | 70 % of Max and 74 % of Max and 75 % of Max |
| O=C(O)CCCCN1C(=O)c2ccc(C(=O)O)cc2C1=O [Compound 103, 4-carboxy-N-(4-carboxybutyl)phthalimide] | 32 % of Max and 69 % of Max and 41 % of Max |
| O=C(O)c1cccc(N2C(=O)c3cccc4cc([N+](=O)[O-])cc(c34)C2=O)c1 [Compound 206, 3-nitro-N-(m-carboxyphenyl)-1,8-naphthalimide] | 20 % of Max and 17 % of Max and 33 % of Max |
| O=C(O)CCCCCN1C(=O)c2ccc([N+](=O)[O-])cc2C1=O [Compound 144, 4-nitro-N-(5-carboxypentyl)phthalimide] | 74 % of Max (2×) and 70 % of Max |

Molecular target: T1, TrkA and p75^NTR (PC12 cells) (Mus musculus, UniProt P01139)
T1 construct: PC12 cells (rat pheochromocytoma cells expressing TrkA and p75^NTR; obtained from ATCC); host or cells: PC12 rat pheochromocytoma cells (intact, in suspension)
Experiment: 125I-NGF receptor binding to PC12 cells in the presence of competitor
Design: species or system rat
Details: compound 50 μM; 125I-NGF 1 nM; 2 h at 4° C.; average of three values
Protocol: as §1

T1 sequence (P01139 122-241): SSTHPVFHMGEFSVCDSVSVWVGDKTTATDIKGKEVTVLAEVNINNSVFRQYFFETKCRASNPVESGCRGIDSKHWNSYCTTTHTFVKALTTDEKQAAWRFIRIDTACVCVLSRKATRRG

| SMILES | PC12 % of Max, Avg |
| --- | --- |
| O=C(O)CCN1C(=O)c2cccc([N+](=O)[O-])c2C1=O [Compound 121, 3-nitro-N-(2-carboxyethyl)phthalimide] | = 103 % of Max |
| O=C(O)CN1C(=O)c2ccc(C(=O)O)cc2C1=O [Compound 100, 4-carboxy-N-(1-carboxymethyl)phthalimide] | = 116 % of Max |
| O=C(O)c1cccc(N2C(=O)c3cccc([N+](=O)[O-])c3C2=O)c1 [Compound 126, 3-nitro-N-(m-carboxyphenyl)phthalimide] | = 77 % of Max |
| O=C(O)CCCCCN1C(=O)c2cccc([N+](=O)[O-])c2C1=O [Compound 124, 3-nitro-N-(5-carboxypentyl)phthalimide] | = 92 % of Max |
| O=C(O)c1ccc(N2C(=O)c3cccc4cc([N+](=O)[O-])cc(c34)C2=O)cc1 [Compound 205, 3-nitro-N-(p-carboxyphenyl)-1,8-naphthalimide] | = 17 % of Max |
| O=C(O)CN1C(=O)c2ccc([N+](=O)[O-])cc2C1=O [Compound 140, 4-nitro-N-(1-carboxymethyl)phthalimide] | = 111 % of Max |
| O=C(O)c1ccc2c(c1)C(=O)N(c1ccccc1)C2=O [Compound 109, 4-carboxy-N-phenylphthalimide] | = 56 % of Max |
| O=C(O)CCCCN1C(=O)c2ccc(C(=O)O)cc2C1=O [Compound 103, 4-carboxy-N-(4-carboxybutyl)phthalimide] | = 78 % of Max |
| O=C(O)c1cccc(N2C(=O)c3cccc4cc([N+](=O)[O-])cc(c34)C2=O)c1 [Compound 206, 3-nitro-N-(m-carboxyphenyl)-1,8-naphthalimide] | = 30 % of Max |
| O=C(O)CCCCCN1C(=O)c2ccc([N+](=O)[O-])cc2C1=O [Compound 144, 4-nitro-N-(5-carboxypentyl)phthalimide] | = 78 % of Max |

Tested on: T2, TrkA and p75^NTR (PC12 cells)
T2 construct: PC12 cells (rat pheochromocytoma cells expressing TrkA and p75^NTR; obtained from ATCC); host or cells: PC12 rat pheochromocytoma cells (intact, in suspension)
Experiment: as above
Design: species or system rat
Details: compound 50 μM; 125I-NGF 1 nM; 2 h at 4° C.; receptor binding as percentage of binding in absence of competitor
Protocol: as §1

T2 sequence (P01139 122-241): as above

| SMILES | PC12 % of Max (individual determinations) |
| --- | --- |
| O=C(O)CCN1C(=O)c2cccc([N+](=O)[O-])c2C1=O [Compound 121, 3-nitro-N-(2-carboxyethyl)phthalimide] | 121 % of Max and 92 % of Max and 103 % of Max |
| O=C(O)CN1C(=O)c2ccc(C(=O)O)cc2C1=O [Compound 100, 4-carboxy-N-(1-carboxymethyl)phthalimide] | 102 % of Max and 108 % of Max and 137 % of Max |
| O=C(O)c1cccc(N2C(=O)c3cccc([N+](=O)[O-])c3C2=O)c1 [Compound 126, 3-nitro-N-(m-carboxyphenyl)phthalimide] | 90 % of Max and 69 % of Max and 72 % of Max |
| O=C(O)CCCCCN1C(=O)c2cccc([N+](=O)[O-])c2C1=O [Compound 124, 3-nitro-N-(5-carboxypentyl)phthalimide] | 117 % of Max and 71 % of Max and 89 % of Max |
| O=C(O)c1ccc(N2C(=O)c3cccc4cc([N+](=O)[O-])cc(c34)C2=O)cc1 [Compound 205, 3-nitro-N-(p-carboxyphenyl)-1,8-naphthalimide] | 16 % of Max and 19 % of Max and 15 % of Max |
| O=C(O)CN1C(=O)c2ccc([N+](=O)[O-])cc2C1=O [Compound 140, 4-nitro-N-(1-carboxymethyl)phthalimide] | 100 % of Max and 126 % of Max and 108 % of Max |
| O=C(O)c1ccc2c(c1)C(=O)N(c1ccccc1)C2=O [Compound 109, 4-carboxy-N-phenylphthalimide] | 50 % of Max and 60 % of Max and 57 % of Max |
| O=C(O)CCCCN1C(=O)c2ccc(C(=O)O)cc2C1=O [Compound 103, 4-carboxy-N-(4-carboxybutyl)phthalimide] | 69 % of Max and 65 % of Max and 100 % of Max |
| O=C(O)c1cccc(N2C(=O)c3cccc4cc([N+](=O)[O-])cc(c34)C2=O)c1 [Compound 206, 3-nitro-N-(m-carboxyphenyl)-1,8-naphthalimide] | 25 % of Max and 29 % of Max and 35 % of Max |
| O=C(O)CCCCCN1C(=O)c2ccc([N+](=O)[O-])cc2C1=O [Compound 144, 4-nitro-N-(5-carboxypentyl)phthalimide] | 68 % of Max and 89 % of Max and 77 % of Max |
